Measurements from ChEMBL document CHEMBL2440076, “New triarylpyrazoles as broad-spectrum anticancer agents: design, synthesis, and biological evaluation” (Eur J Med Chem, 2013).

What was measured:
[1] = tested on: T47D; test: Growth inhibition of human T47D cells assessed as cell growth at 10 uM after 48 hrs by sulforhodamine B assay; format: functional; conditions: read-out: Activity
[2] = tested on: PC-3; test: Growth inhibition of human PC3 cells assessed as cell growth at 10 uM after 48 hrs by sulforhodamine B assay; format: functional; conditions: PC-3, 48 h, read-out: Activity
[3] = tested on: CAKI-1; test: Growth inhibition of human CAKI-1 cells assessed as cell growth at 10 uM after 48 hrs by sulforhodamine B assay; format: functional; conditions: CAKI-1, 48 h, read-out: Activity
[4] = tested on: HT-29; test: Growth inhibition of human HT-29 cells after 48 hrs by sulforhodamine B assay; format: functional; conditions: HT-29, 48 h; for CC50: read-out: LC50 (the source's name)
[5] = tested on: KM12; test: Growth inhibition of human KM12 cells after 48 hrs by sulforhodamine B assay; format: functional, cell-based; conditions: KM12, 48 h; for CC50: read-out: LC50 (the source's name)
[6] = tested on: COLO 205; test: Growth inhibition of human COLO205 cells after 48 hrs by sulforhodamine B assay; format: functional; conditions: COLO 205, 48 h
[7] = tested on: NCI-H23; test: Growth inhibition of human NCI-H23 cells after 48 hrs by sulforhodamine B assay; format: functional; conditions: NCI-H23, 48 h
[8] = tested on: NCI-H226; test: Growth inhibition of human NCI-H226 cells after 48 hrs by sulforhodamine B assay; format: functional; conditions: NCI-H226, 48 h; for CC50: read-out: LC50 (the source's name)
[9] = tested on: CCRF-CEM; test: Growth inhibition of human CCRF-CEM cells after 48 hrs by sulforhodamine B assay; format: functional
[10] = tested on: RXF 393; test: Growth inhibition of human RXF393 cells assessed as cell growth at 10 uM after 48 hrs by sulforhodamine B assay; format: functional; conditions: RXF 393, 48 h, read-out: Activity
[11] = tested on: 786-0; test: Growth inhibition of human 786-0 cells assessed as cell growth at 10 uM after 48 hrs by sulforhodamine B assay; format: functional; conditions: 786-0, 48 h, read-out: Activity
[12] = tested on: A498; test: Growth inhibition of human A498 cells assessed as cell growth at 10 uM after 48 hrs by sulforhodamine B assay; format: functional; conditions: A498, 48 h, read-out: Activity
[13] = tested on: OVCAR-5; test: Growth inhibition of human OVCAR5 cells assessed as cell growth at 10 uM after 48 hrs by sulforhodamine B assay; format: functional; conditions: OVCAR-5, 48 h, read-out: Activity
[14] = tested on: OVCAR-8; test: Growth inhibition of human OVCAR8 cells assessed as cell growth at 10 uM after 48 hrs by sulforhodamine B assay; format: functional; conditions: OVCAR-8, 48 h, read-out: Activity
[15] = tested on: SK-MEL-5; test: Growth inhibition of human SK-MEL-5 cells assessed as cell growth at 10 uM after 48 hrs by sulforhodamine B assay; format: functional; conditions: SK-MEL-5, 48 h, read-out: Activity
[16] = tested on: SK-MEL-2; test: Growth inhibition of human SK-MEL-2 cells assessed as cell growth at 10 uM after 48 hrs by sulforhodamine B assay; format: functional; conditions: SK-MEL-2, 48 h, read-out: Activity
[17] = tested on: Malme-3M; test: Growth inhibition of human MALME-3M cells assessed as cell growth at 10 uM after 48 hrs by sulforhodamine B assay; format: functional; conditions: read-out: Activity
[18] = tested on: LOX IMVI; test: Growth inhibition of human LOXIMVI cells assessed as cell growth at 10 uM after 48 hrs by sulforhodamine B assay; format: functional; conditions: read-out: Activity
[19] = tested on: U-251; test: Growth inhibition of human U251 cells assessed as cell growth at 10 uM after 48 hrs by sulforhodamine B assay; format: functional; conditions: U-251, 48 h, read-out: Activity
[20] = tested on: HCT-15; test: Growth inhibition of human HCT15 cells assessed as cell growth at 10 uM after 48 hrs by sulforhodamine B assay; format: functional; conditions: HCT-15, 48 h, read-out: Activity
[21] = Growth inhibition of human HCC2998 cells assessed as cell growth at 10 uM after 48 hrs by sulforhodamine B assay; format: functional; conditions: HCC 2998, 48 h, read-out: Activity
[22] = tested on: NCI-H322M; test: Growth inhibition of human NCI-H322M cells assessed as cell growth at 10 uM after 48 hrs by sulforhodamine B assay; format: functional; conditions: read-out: Activity
[23] = tested on: BT-549; test: Growth inhibition of human BT549 cells after 48 hrs by sulforhodamine B assay; format: functional; conditions: BT-549, 48 h
[24] = tested on: MCF7; test: Growth inhibition of human MCF7 cells after 48 hrs by sulforhodamine B assay; format: functional; conditions: MCF7, 48 h
[25] = tested on: DU-145; test: Growth inhibition of human DU145 cells after 48 hrs by sulforhodamine B assay; format: functional; conditions: DU-145, 48 h
[26] = tested on: RXF 393; test: Growth inhibition of human RXF393 cells after 48 hrs by sulforhodamine B assay; format: functional; conditions: RXF 393, 48 h
[27] = tested on: OVCAR-5; test: Growth inhibition of human OVCAR5 cells after 48 hrs by sulforhodamine B assay; format: functional; conditions: OVCAR-5, 48 h
[28] = tested on: SK-MEL-5; test: Growth inhibition of human SK-MEL-5 cells after 48 hrs by sulforhodamine B assay; format: functional; conditions: SK-MEL-5, 48 h
[29] = tested on: UACC-257; test: Growth inhibition of human UACC257 cells after 48 hrs by sulforhodamine B assay; format: functional; conditions: UACC-257, 48 h; for CC50: read-out: LC50 (the source's name)
[30] = tested on: MDA-MB-435; test: Growth inhibition of human MDA-MB-435 cells after 48 hrs by sulforhodamine B assay; format: functional, cell-based; conditions: MDA-MB-435, 48 h
[31] = tested on: SF-539; test: Growth inhibition of human SF539 cells after 48 hrs by sulforhodamine B assay; format: functional; conditions: SF-539, 48 h
[32] = tested on: HOP-62; test: Growth inhibition of human HOP62 cells assessed as cell growth at 10 uM after 48 hrs by sulforhodamine B assay; format: functional; conditions: HOP-62, 48 h, read-out: Activity
[33] = tested on: A549; test: Growth inhibition of human A549/ATCC cells assessed as cell growth at 10 uM after 48 hrs by sulforhodamine B assay; format: functional; conditions: A549, 48 h, read-out: Activity
[34] = tested on: RPMI-8226; test: Growth inhibition of human RPMI8226 cells assessed as cell growth at 10 uM after 48 hrs by sulforhodamine B assay; format: functional; conditions: RPMI-8226, 48 h, read-out: Activity
[35] = tested on: CCRF-CEM; test: Growth inhibition of human CCRF-CEM cells assessed as cell growth at 10 uM after 48 hrs by sulforhodamine B assay; format: functional; conditions: read-out: Activity

## COc1cc(-c2nn(-c3cccc(NC(=O)Nc4cccc(C(F)(F)F)c4)c3)cc2-c2ccncc2)ccc1Cl
[1]
  growth at 10 µM: -4.03%
[2]
  growth at 10 µM: -23%
[3]
  growth at 10 µM: 11.5%
[4]
  GI50: 0.748 µM
  TGI: 1.87 µM
  CC50: 4.67 µM
[5]
  GI50: 0.573 µM
  IC50: 0.57 µM
  TGI: 1.98 µM
  CC50: > 50 µM
[6]
  GI50: 0.894 µM
  LC50 (concentration killing 50% of cells): 3.43 µM
  TGI: 1.75 µM
[7]
  GI50: 1.18 µM
  LC50: > 50 µM
  TGI: 3.41 µM
[8]
  GI50: 1.38 µM
  TGI: > 50 µM
  CC50: > 50 µM
[9]
  GI50: 0.945 µM
  LC50: > 50 µM
[10]
  growth at 10 µM: -69.8%
[11]
  growth at 10 µM: -15%
[12]
  growth at 10 µM: -5.17%
[13]
  growth at 10 µM: 28.2%
[14]
  growth at 10 µM: -36.2%
[15]
  growth at 10 µM: -97.8%
[16]
  growth at 10 µM: -71.2%
[17]
  growth at 10 µM: -32.1%
[18]
  growth at 10 µM: -64.2%
[19]
  growth at 10 µM: -82.2%
[20]
  growth at 10 µM: 5.28%
[21]
  growth at 10 µM: -18.4%
[22]
  growth at 10 µM: 21.7%
[23]
  GI50: 1.25 µM
  LC50 (50% lethal concentration): 50 µM
  TGI: 3.81 µM
[24]
  GI50: 0.751 µM
  LC50: > 50 µM
  TGI: 7.72 µM
[25]
  GI50: 1.67 µM
  LC50: > 50 µM
  TGI: > 50 µM
[26]
  GI50: 0.777 µM
  LC50 (concentration killing 50% of cells): 4.83 µM
  TGI: 1.94 µM
[27]
  GI50: 1.27 µM
  LC50 (concentration killing 50% of cells): > 50 µM
  TGI: 6.45 µM
[28]
  GI50: 0.72 µM
  LC50 (concentration killing 50% of cells): 2.68 µM
  TGI: 1.39 µM
[29]
  GI50: 0.923 µM
  TGI: 2.31 µM
  CC50: 7.58 µM
[30]
  GI50: 0.866 µM
  IC50: 0.87 µM
  TGI: 2.14 µM
[30]; read-out: LC50 (the source's name)
  CC50: 8.07 µM
[31]
  GI50: 0.89 µM
  LC50 (concentration killing 50% of cells): 21 µM
  TGI: 2.42 µM
[32]
  growth at 10 µM: -29.9%
[33]
  growth at 10 µM: -14%
[34]
  growth at 10 µM: -14.8%
[35]
  growth at 10 µM: -9.68%

## COc1cc(-c2nn(-c3cccc(NC(=O)c4cccc(C(F)(F)F)c4)c3)cc2-c2ccncc2)ccc1Cl
[1]
  growth at 10 µM: 29%
[2]
  growth at 10 µM: 4.39%
[3]
  growth at 10 µM: 44.7%
[4]
  GI50: 1.39 µM
  TGI: 20.1 µM
  CC50: > 50 µM
[5]
  GI50: 1.66 µM
  TGI: > 50 µM
  CC50: > 50 µM
[6]
  GI50: 1.64 µM
  LC50 (concentration killing 50% of cells): 24.8 µM
  TGI: 5.17 µM
[7]
  GI50: 1.56 µM
  LC50: > 50 µM
  TGI: 32.5 µM
[8]
  GI50: 1.66 µM
  TGI: 27 µM
  CC50: > 50 µM
[9]
  GI50: 1.45 µM
  LC50: > 50 µM
  TGI: > 50 µM
[10]
  growth at 10 µM: -42.8%
[11]
  growth at 10 µM: 29.8%
[12]
  growth at 10 µM: -19%
[13]
  growth at 10 µM: 49.4%
[14]
  growth at 10 µM: 11.8%
[15]
  growth at 10 µM: -33%
[16]
  growth at 10 µM: -38.6%
[17]
  growth at 10 µM: 10.1%
[18]
  growth at 10 µM: 11.4%
[19]
  growth at 10 µM: 13.1%
[20]
  growth at 10 µM: 12.8%
[21]
  growth at 10 µM: 0.91%
[22]
  growth at 10 µM: 58.1%
[23]
  GI50: 2.87 µM
  LC50 (50% lethal concentration): > 50 µM
  TGI: 46.8 µM
[24]
  GI50: 1.43 µM
  LC50: > 50 µM
  TGI: > 50 µM
[25]
  GI50: 1.76 µM
  LC50: > 50 µM
  TGI: 32.1 µM
[26]
  GI50: 0.811 µM
  LC50 (concentration killing 50% of cells): > 50 µM
  TGI: 3.15 µM
[27]
  GI50: 4.01 µM
  LC50 (concentration killing 50% of cells): > 50 µM
  TGI: > 50 µM
[28]
  GI50: 0.978 µM
  LC50 (concentration killing 50% of cells): 40.6 µM
  TGI: 2.47 µM
[29]
  GI50: 27.9 µM
  TGI: > 50 µM
  CC50: > 50 µM
[30]
  GI50: 0.705 µM
  IC50: 0.71 µM
  TGI: 1.77 µM
[31]
  GI50: 0.895 µM
  LC50 (concentration killing 50% of cells): > 50 µM
  TGI: 2.3 µM
[32]
  growth at 10 µM: 22.9%
[33]
  growth at 10 µM: 7.4%
[34]
  growth at 10 µM: -1.13%
[35]
  growth at 10 µM: 3.1%
